In patent US20070275962A1, “Heterobicyclic Compounds as Pharmaceutically Active Agents” (GPC BIOTECH AG, priority 2003, published 2007):
Counter-ions that a name gives are not always drawn.

Columns and labels:
CK1-alpha GST = target: T1, CK1-alpha GST (Homo sapiens, UniProt P48729); test: General kinase assay: CK1-alpha; assay type: biochemical; details: concentration 10 μM; read-out: Inhibitory effect on Target CK1-alpha GST
T1 construct: GST
Description: (§1) General Assay Protocol for all Kinases [[[…]]] [[[…]]] Reaction Buffer: Final Assay Concentrations: [[[…]]] Pipetting Sequence: • 1) Add 8 μl 50 μM MBP in Reaction Buffer to each well of Assay Plate • 2) Add 10 μl 500 mM EDTA in H2O to C- wells • 3) Add 8 μl 62.5 μCi/ml Adenosine 5'-[γ-^33P]triphosphate+5 μM ATP in Reaction Buffer to each well • 4) Add 8 μl 5 fold concentrated inhibitor in 5% DMSO in Reaction Buffer to each well except to C- and C+ wells • 5) Add 8 μl 5% DMSO in Reaction Buffer to C- and C+ wells • 6) Add 8 μl 5 fold concentrated kinase in Reaction Buffer to each well • 7) Incubate 1 hr at room temperature • 8) Add 10 μl 50 mM EDTA in H2O to each well except to C- wells • 9) Prepare MAPH plates by adding 200 μl 0.75% H3PO4 to each well • 10) Exhaust 0.75% H3PO4 using Millipore vacuum station • 11) Add 60 μl 0.75% H3PO4 to each well of MAPH Filter Plate • 12) Transfer 30 μl sample per well from Assay Plate to corresponding well of MAPH Filter Plate • 13) Incubate 30 min at room temperature • 14) Wash each well of MAPH Filter Plates 3× with 200 μl 0.75% H3PO4 using Millipore vacuum station • 15) Add 20 μl Szintilation Liquid to each well of MAPH Filter Plate • 16) Seal MAPH Filter Plate • 17) Store MAPH Filter Plate 30 min in darkness • 18) Quantify radioactivity

EGFR GST-HIS = target: T2, EGFR GST-HIS (Homo sapiens, UniProt P00533); test: General kinase assay: EGFR; assay type: biochemical; details: concentration 10 μM; read-out: Inhibitory effect on Target EGFR GST-HIS
T2 construct: GST; His
T2 sequence (P00533 25-1210): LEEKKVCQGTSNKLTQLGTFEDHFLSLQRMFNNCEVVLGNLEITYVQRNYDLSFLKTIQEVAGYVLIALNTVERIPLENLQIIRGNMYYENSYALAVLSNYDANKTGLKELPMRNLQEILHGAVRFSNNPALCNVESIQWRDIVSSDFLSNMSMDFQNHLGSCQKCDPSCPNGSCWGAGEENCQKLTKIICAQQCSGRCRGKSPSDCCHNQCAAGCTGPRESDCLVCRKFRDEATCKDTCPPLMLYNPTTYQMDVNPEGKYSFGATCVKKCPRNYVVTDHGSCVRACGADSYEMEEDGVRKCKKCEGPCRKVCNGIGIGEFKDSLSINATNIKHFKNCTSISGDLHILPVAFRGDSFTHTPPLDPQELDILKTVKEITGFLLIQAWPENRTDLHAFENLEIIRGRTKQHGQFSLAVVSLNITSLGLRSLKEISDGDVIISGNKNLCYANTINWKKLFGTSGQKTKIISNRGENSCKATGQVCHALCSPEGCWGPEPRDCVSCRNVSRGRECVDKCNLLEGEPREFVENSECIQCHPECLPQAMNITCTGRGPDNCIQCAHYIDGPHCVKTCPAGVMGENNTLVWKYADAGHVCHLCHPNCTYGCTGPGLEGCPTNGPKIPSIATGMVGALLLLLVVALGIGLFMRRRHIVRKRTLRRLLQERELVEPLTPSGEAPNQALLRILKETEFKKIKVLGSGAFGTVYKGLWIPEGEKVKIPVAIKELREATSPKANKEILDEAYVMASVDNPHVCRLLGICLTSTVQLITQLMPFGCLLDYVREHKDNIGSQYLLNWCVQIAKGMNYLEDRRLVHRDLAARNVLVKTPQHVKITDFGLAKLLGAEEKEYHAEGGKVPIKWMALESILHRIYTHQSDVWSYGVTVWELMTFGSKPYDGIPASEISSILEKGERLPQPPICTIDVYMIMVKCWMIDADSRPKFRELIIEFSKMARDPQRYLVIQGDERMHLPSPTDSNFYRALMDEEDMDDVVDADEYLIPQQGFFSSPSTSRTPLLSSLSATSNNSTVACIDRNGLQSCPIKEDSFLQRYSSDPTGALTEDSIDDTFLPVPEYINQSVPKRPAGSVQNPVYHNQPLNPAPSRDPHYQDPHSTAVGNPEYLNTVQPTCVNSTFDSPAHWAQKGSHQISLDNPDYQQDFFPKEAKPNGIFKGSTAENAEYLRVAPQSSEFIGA
Description: as §1

SRPK1 GST = target: T3, SRPK1 GST (Homo sapiens, UniProt Q96SB4); test: General kinase assay: SRPK1; assay type: biochemical; details: concentration 10 μM; read-out: Inhibitory effect on Target SRPK1 GST
T3 construct: GST
T3 sequence (Q96SB4 whole entry): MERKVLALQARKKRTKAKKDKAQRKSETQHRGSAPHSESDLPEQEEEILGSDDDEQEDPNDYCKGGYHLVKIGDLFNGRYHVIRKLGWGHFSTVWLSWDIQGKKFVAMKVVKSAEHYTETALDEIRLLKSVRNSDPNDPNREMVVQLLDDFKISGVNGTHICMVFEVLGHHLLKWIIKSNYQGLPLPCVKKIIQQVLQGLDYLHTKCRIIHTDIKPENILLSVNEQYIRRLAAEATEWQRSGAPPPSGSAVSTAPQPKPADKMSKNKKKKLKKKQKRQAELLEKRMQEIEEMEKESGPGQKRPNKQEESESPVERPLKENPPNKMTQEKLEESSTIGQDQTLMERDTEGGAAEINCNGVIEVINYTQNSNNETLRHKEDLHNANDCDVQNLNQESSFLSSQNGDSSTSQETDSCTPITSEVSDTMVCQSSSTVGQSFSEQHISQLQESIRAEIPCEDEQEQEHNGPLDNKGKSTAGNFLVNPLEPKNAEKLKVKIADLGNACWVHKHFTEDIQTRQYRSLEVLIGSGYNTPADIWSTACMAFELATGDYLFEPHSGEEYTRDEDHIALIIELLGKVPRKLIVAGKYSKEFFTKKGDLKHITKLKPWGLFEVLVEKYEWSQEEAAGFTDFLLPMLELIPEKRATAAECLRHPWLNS
Description: as §1

PDGFRbeta GST = target: T4, PDGFRbeta GST (Homo sapiens, UniProt P09619); test: General kinase assay: PDGFRbeta; assay type: biochemical; details: concentration 10 μM; read-out: Inhibitory effect on Target PDGFRbeta GST
T4 construct: GST
T4 sequence (P09619 33-1106): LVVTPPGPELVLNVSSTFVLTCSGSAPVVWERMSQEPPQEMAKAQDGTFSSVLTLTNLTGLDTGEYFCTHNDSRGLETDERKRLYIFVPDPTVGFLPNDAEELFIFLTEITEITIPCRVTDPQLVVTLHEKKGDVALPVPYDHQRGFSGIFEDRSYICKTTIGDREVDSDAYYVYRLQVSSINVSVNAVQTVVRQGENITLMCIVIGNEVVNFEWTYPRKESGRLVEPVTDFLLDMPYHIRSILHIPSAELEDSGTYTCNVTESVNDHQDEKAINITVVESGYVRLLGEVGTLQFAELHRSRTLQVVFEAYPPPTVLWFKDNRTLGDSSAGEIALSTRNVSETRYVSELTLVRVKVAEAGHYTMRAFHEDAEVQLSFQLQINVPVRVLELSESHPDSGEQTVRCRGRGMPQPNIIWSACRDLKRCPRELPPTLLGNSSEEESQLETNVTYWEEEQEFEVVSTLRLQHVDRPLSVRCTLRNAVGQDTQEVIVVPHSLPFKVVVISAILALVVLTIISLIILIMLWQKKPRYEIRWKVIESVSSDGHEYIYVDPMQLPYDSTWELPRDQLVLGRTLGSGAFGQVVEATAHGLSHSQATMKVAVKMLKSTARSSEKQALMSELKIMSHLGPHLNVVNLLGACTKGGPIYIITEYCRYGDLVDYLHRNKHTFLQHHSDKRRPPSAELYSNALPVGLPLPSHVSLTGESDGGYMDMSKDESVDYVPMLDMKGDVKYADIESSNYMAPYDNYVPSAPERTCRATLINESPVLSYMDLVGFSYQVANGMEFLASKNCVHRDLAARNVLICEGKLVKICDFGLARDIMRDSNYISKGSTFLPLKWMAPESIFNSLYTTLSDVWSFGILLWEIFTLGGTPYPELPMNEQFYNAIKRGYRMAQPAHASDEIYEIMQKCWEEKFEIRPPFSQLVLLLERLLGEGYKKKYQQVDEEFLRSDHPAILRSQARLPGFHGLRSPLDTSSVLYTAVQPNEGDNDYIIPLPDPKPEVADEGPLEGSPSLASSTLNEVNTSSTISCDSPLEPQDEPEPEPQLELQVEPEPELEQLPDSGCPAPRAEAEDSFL
Description: as §1

RICK-STREP 1 = target: T5, RICK-STREP 1 (Homo sapiens, UniProt O43353); test: General kinase assay: RICK; assay type: biochemical; details: concentration 10 μM; read-out: Inhibitory effect on Target RICK-STREP 1
T5 construct: Strep
T5 sequence (O43353 whole entry): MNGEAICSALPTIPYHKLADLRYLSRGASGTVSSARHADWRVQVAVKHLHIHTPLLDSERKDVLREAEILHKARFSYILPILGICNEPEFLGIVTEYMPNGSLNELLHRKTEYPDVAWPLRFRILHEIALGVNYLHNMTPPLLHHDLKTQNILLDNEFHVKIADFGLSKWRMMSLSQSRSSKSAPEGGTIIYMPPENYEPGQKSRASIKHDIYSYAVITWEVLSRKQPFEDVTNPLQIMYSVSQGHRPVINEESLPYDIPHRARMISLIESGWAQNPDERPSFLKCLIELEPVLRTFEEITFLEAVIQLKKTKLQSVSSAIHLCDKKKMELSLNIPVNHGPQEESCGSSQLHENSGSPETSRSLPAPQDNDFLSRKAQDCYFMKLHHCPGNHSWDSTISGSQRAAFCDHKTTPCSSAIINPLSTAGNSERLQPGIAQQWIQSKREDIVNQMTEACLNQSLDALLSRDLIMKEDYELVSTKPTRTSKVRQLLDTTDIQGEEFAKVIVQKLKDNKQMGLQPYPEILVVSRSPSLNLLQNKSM
Description: as §1

RSK1 act. HIS = target: T6, RSK1 act. HIS (Homo sapiens, UniProt Q15418); test: General kinase assay: RSK1; assay type: biochemical; details: concentration 10 μM; read-out: Inhibitory effect on Target RSK1 act. HIS
T6 construct: His
Description: as §1

Jnk1a1 HIS = target: T7, Jnk1a1 HIS (Homo sapiens, UniProt P45983); test: General kinase assay: Jnk1a1; assay type: biochemical; details: concentration 10 μM; read-out: Inhibitory effect on Target Jnk1a1 HIS
T7 construct: His
T7 sequence (P45983 1-384 isoform P45983-2): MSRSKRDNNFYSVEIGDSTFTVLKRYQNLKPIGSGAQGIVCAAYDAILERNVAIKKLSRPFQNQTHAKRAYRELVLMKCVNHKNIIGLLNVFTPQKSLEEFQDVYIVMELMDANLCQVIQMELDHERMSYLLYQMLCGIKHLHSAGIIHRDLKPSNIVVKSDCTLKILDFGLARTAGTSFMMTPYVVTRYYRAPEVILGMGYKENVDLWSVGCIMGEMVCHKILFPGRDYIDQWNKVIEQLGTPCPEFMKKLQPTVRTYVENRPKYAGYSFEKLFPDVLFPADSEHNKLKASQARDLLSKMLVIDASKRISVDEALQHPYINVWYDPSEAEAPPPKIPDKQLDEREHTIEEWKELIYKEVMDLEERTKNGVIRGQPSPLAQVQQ
Description: as §1

Kit human GST = target: T8, Kit human GST (Homo sapiens, UniProt P10721); test: General kinase assay: Kit; assay type: biochemical; details: concentration 10 μM; read-out: Inhibitory effect on Target Kit human GST
T8 construct: GST
Description: as §1

GSK-3beta HIS = target: T9, GSK-3beta HIS (Homo sapiens, UniProt P49841); test: General kinase assay: GSK-3beta; assay type: biochemical; details: concentration 10 μM; read-out: Inhibitory effect on Target GSK-3beta HIS
T9 construct: His
T9 sequence (P49841 whole entry): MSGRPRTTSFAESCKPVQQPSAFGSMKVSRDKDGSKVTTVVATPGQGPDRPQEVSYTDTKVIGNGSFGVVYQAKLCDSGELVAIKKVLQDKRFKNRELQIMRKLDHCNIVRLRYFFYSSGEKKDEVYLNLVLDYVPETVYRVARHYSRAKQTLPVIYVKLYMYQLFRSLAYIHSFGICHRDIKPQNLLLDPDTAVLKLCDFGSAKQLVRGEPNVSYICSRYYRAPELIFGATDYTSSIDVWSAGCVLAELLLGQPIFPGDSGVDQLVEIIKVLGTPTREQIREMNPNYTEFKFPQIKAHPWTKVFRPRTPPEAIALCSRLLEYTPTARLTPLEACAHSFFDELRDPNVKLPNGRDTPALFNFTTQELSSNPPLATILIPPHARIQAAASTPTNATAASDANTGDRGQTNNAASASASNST
Description: as §1

c-Src HIS = target: T10, c-Src HIS (Homo sapiens, UniProt P12931); test: General kinase assay: c-Src; assay type: biochemical; details: concentration 10 μM; read-out: Inhibitory effect on Target c-Src HIS
T10 construct: His
Description: as §1

ROCK2 human HIS = target: T11, ROCK2 human HIS (Homo sapiens, UniProt O75116); test: General kinase assay: ROCK2; assay type: biochemical; details: concentration 10 μM; read-out: Inhibitory effect on Target ROCK2 human HIS
T11 construct: His
Description: as §1

p70S6K HIS = test: General kinase assay: p70S6K; assay type: biochemical; details: concentration 10 μM
Description: as §1

CDK2/CycA = CDK2/CycA (Homo sapiens, UniProt P24941); test: General kinase assay: CDK2/CycA; assay type: biochemical; details: concentration 10 μM; read-out: Inhibitory effect on Target CDK2/CycA
Description: as §1

cMet GST-HIS = target: T12, cMet GST-HIS (Homo sapiens, UniProt P08581); test: General kinase assay: cMet; assay type: biochemical; details: concentration 10 μM; read-out: Inhibitory effect on Target cMet GST-HIS
T12 construct: GST; His
Description: as §1

InsR GST = target: T13, InsR GST (Homo sapiens, UniProt P06213); test: General kinase assay: InsR; assay type: biochemical; details: concentration 10 μM; read-out: Inhibitory effect on Target InsR GST
T13 construct: GST
Description: as §1

AKT1/PKBa act. HIS = target: T14, AKT1/PKBa act. HIS (Homo sapiens, UniProt P31749); test: General kinase assay (MBP, 33P-ATP, filter plate): AKT1/PKBa; assay type: biochemical; details: concentration 10 μM; read-out: Inhibitory effect on Target AKT1/PKBa act. HIS
T14 construct: His
Description: as §1

IKKbeta HIS = target: T15, IKKbeta HIS (Homo sapiens, UniProt O14920); test: General kinase assay: IKKbeta; assay type: biochemical; details: concentration 10 μM; read-out: Inhibitory effect on Target IKKbeta HIS
T15 construct: His
T15 sequence (O14920 1-756): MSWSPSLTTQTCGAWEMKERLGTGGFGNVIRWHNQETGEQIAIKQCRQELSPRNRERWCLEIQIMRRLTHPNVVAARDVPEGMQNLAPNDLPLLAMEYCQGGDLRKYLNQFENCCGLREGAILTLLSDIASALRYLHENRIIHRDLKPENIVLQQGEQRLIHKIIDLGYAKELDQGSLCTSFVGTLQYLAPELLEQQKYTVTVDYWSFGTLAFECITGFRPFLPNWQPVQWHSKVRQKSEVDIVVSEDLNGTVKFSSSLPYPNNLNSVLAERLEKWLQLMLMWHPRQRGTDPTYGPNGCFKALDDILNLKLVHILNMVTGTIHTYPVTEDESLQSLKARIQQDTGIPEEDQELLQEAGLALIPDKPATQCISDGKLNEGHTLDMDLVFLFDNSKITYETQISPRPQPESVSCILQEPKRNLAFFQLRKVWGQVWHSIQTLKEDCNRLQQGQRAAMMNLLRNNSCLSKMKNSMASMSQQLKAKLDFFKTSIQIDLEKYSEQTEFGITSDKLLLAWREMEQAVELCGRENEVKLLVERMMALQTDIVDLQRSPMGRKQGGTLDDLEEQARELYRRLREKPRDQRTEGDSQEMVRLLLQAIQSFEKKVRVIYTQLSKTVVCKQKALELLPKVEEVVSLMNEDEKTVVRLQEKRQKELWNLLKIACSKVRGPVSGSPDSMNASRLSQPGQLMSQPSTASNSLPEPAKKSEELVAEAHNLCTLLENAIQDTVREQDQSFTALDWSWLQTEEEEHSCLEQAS
Description: as §1

[1] = target: T16, mycobacterial protein kinase G (PknG) (Mycobacterium tuberculosis, UniProt P9WI73); test: biochemical; details: read-out: Inhibition of PknG (IC50, [μM])
T16 construct: GST; made in house; host or cells: E. coli BL21

T1 sequence (P48729 whole entry): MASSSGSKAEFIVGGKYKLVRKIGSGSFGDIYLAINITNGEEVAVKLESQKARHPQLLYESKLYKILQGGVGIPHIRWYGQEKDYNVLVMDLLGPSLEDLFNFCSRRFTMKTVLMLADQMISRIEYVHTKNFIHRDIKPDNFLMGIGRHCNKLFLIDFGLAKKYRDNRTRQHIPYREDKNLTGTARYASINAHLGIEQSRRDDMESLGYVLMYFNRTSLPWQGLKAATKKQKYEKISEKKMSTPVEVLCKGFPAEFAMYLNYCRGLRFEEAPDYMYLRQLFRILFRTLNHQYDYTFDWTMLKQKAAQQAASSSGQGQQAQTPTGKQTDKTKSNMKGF

| Structure (SMILES) | melting point | inhibition at 10 µM (CK1-alpha GST) [%] | inhibition at 10 µM (EGFR GST-HIS) [%] | inhibition at 10 µM (SRPK1 GST) [%] | inhibition at 10 µM (PDGFRbeta GST) [%] | inhibition at 10 µM (RICK-STREP 1) [%] | inhibition at 10 µM (GSK-3beta HIS) [%] | inhibition at 10 µM (CDK2/CycA) [%] | also measured |
| --- | --- | --- | --- | --- | --- | --- | --- | --- | --- |
| NC(=O)c1c(NC(=O)Nc2ccccc2)sc2c1CCC1(C2)OCCO1 (as salt: HCl) [Compound D199, 2-[(Anilinocarbonyl)amino]-4,7-dihydro-5H-spiro[1-benzothiophene-6,2′-[1,3]dioxolane]-3-carboxamide] | 212 to 213 °C |  |  |  |  |  |  |  |  |
| NC(=O)c1c(NC(=O)Nc2ccccc2)sc2cc(O)ccc12 [Compound A12, 6-Hydroxy-2-(3-phenyl-ureido)-benzo[b]thiophene-3-carboxylic acid amide] |  | > 50 | > 50 | > 50 | > 50 | > 50 | > 50 | > 50 | inhibition at 10 µM (RSK1 act. HIS): > 50%; inhibition at 10 µM (Jnk1a1 HIS): > 50%; inhibition at 10 µM (Kit human GST): > 50%; inhibition at 10 µM (c-Src HIS): > 50%; inhibition at 10 µM (ROCK2 human HIS): > 50%; Inhibitory effect on Target p70S6K HIS (p70S6K HIS): + (+ = >50% inhibition at concentration 10 μM) |
| NC(=O)c1c(NC(=O)C2CC2)sc2c(O)c(Br)ccc12 [Compound A15, 6-Bromo-2-(cyclopropanecarbonyl-amino)-7-hydroxy-benzo[b]thiophene-3-carboxylic acid amide] |  | > 50 | > 50 | > 50 | > 50 | > 50 | > 50 |  | inhibition at 10 µM (Jnk1a1 HIS): > 50%; Inhibitory effect on Target p70S6K HIS (p70S6K HIS): + (+ = >50% inhibition at concentration 10 μM); inhibition at 10 µM (cMet GST-HIS): > 50% |
| CC1CC1C(=O)Nc1sc2c(Cl)c(O)ccc2c1C(N)=O (stereo not shown) [Compound A37, 7-Chloro-6-hydroxy-2-[(2-methyl-cyclopropanecarbonyl)-amino]-benzo[b]thiophene-3-carboxylic acid amide] |  | > 50 | > 50 | > 50 | > 50 | > 50 | > 50 | > 50 | inhibition at 10 µM (InsR GST): > 50%; inhibition at 10 µM (AKT1/PKBa act. HIS): > 50%; inhibition at 10 µM (RSK1 act. HIS): > 50%; inhibition at 10 µM (Jnk1a1 HIS): > 50%; inhibition at 10 µM (Kit human GST): > 50%; Inhibitory effect on Target p70S6K HIS (p70S6K HIS): + (+ = >50% inhibition at concentration 10 μM); inhibition at 10 µM (IKKbeta HIS): > 50% |
| NC(=O)c1c(NC(=O)C2CC2)sc2c(Cl)c(OCCO)c(Cl)cc12 [Compound A49, 5,7-Dichloro-2-(cyclopropanecarbonyl-amino)-6-(2-hydroxyethoxy)-benzo[b]thiophene-3-carboxylic acid amide] | 250 to 254 °C |  |  |  |  |  |  |  |  |
| CCOC(=O)Nc1sc2c(Cl)c(O)c(Cl)cc2c1C(N)=O [Compound A120, (3-Carbamoyl-5,7-dichloro-6-hydroxy-benzo[b]thiophen-2-yl)-carbamic acid ethyl ester] | 235 to 240 °C |  |  |  |  |  |  |  |  |
| NC(=O)c1c(NC(=O)C2CC2)sc2c1CCC(Br)(Br)C2=O [Compound D67, 6,6-Dibromo-2-(cyclopropanecarbonyl-amino)-7-oxo-4,5,6,7-tetrahydro-benzo[b]thiophene-3-carboxylic acid amide] |  | > 50 | > 50 | > 50 |  | > 50 | > 50 | > 50 | IC50 [1]: 0.1 to 1 µM; inhibition at 10 µM (cMet GST-HIS): > 50% |
| NS(=O)(=O)c1c(NC(=O)C2CC2)sc2c1CCCC2 [Compound D86, Cyclopropanecarboxylic acid (3-sulfamoyl-4,5,6,7-tetrahydro-benzo[b]thiophen-2-yl)-amide] | 235 to 238 °C (dec.) |  |  |  |  |  |  |  |  |
| NN=C1CCc2c(sc(NC(=O)C3CC3)c2C(N)=O)C1 [Compound D115, 2-(Cyclopropanecarbonyl-amino)-6-hydrazono-4,5,6,7-tetrahydro-benzo[b]thiophene-3-carboxylic acid amide] |  | > 50 | > 50 |  | > 50 | > 50 | > 50 | > 50 | inhibition at 10 µM (Kit human GST): > 50%; IC50 [1]: 0.1 to 1 µM |
| NC(=O)c1c(NC(=O)Nc2ccc(F)cc2)sc2c1CCC(=O)C2 [Compound D121, 2-[3-(4-Fluoro-phenyl)-ureido]-6-oxo-4,5,6,7-tetrahydro-benzo[b]thiophene-3-carboxylic acid amide] |  | > 50 | > 50 | > 50 |  | > 50 | > 50 | > 50 | inhibition at 10 µM (c-Src HIS): > 50% |
| NC(=O)c1c(NC(=O)Nc2ccc(F)cc2)sc2c1CCC(O)C2 (stereo not shown) [Compound D142, 2-[3-(4-Fluoro-phenyl)-ureido]-6-hydroxy-4,5,6,7-tetrahydro-benzo[b]thiophene-3-carboxylic acid amide] |  | > 50 |  | > 50 |  | > 50 |  | > 50 | inhibition at 10 µM (c-Src HIS): > 50%; inhibition at 10 µM (IKKbeta HIS): > 50% |
| O=C(Nc1sc2c(c1S(=O)(=O)O)CCCC2)C1CC1 [Compound D216, 2-(Cyclopropanecarbonyl-amino)-4,5,6,7-tetrahydro-benzo[b]thiophene-3-sulfonic acid] | 225 to 230 °C (dec.) |  |  |  |  |  |  |  |  |
